# Data reported in patent US20250368649A1, “TETRAHYDROPYRIDOPYRIMIDINE PAN-KRAS INHIBITORS” (Mirati Therapeutics, Inc., priority 2022, published 2025).
# Assays:
# [1] = tested on: H727 cells; assay: Inhibition of KRas-mediated phosphorylation of ERK (Cisbio HTRF pERK), H727 cells; format: cell-based; conditions: Homo sapiens; for inhibition at 0.1 µM: NCI-H727, single point at 100 nM, 3 hrs compound incubation; for IC50: NCI-H727, 3 h, 3 hr compound incubation
# [2] = target: KRas G12D (Homo sapiens, UniProt P01116, G12D); assay: biochemical; conditions: Binding to KRas (IC50 nM) G12D, TR-FRET displacement, KRas G12D
# [3] = target: KRas G12V (Homo sapiens, UniProt P01116, G12V); assay: biochemical; conditions: Binding to KRas (IC50 nM) G12V, TR-FRET displacement, KRas G12V
# [4] = tested on: A549 cells; assay: Inhibition of KRas-mediated phosphorylation of ERK (Cisbio HTRF pERK), A549 cells; format: cell-based; conditions: Homo sapiens; for inhibition at 0.1 µM: single point at 100 nM, 3 hrs compound incubation
# [5] = tested on: H358 cells; assay: Inhibition of KRas-mediated phosphorylation of ERK (Cisbio HTRF pERK), H358 cells; format: cell-based; conditions: Homo sapiens; for inhibition at 0.1 µM: NCI-H358, single point at 100 nM, 3 hrs compound incubation
# [6] = tested on: ASPC1 cells; assay: Inhibition of KRas-mediated phosphorylation of ERK (Cisbio HTRF pERK), ASPC1 cells; format: cell-based; conditions: Homo sapiens, AsPC-1 cells; for inhibition at 0.1 µM: ASPC1, single point at 100 nM, 3 hrs compound incubation; for IC50: ASPC1, 3 h, 3 hr compound incubation
# [7] = target: KRas G12R (Homo sapiens, UniProt P01116, G12R); assay: biochemical; conditions: Binding to KRas (IC50 nM) G12R, TR-FRET displacement, KRas G12R
# [8] = tested on: H460 cells; assay: Inhibition of KRas-mediated phosphorylation of ERK (Cisbio HTRF pERK), H460 cells; format: cell-based; conditions: Homo sapiens, NCI-H460, single point at 100 nM, 3 hrs compound incubation
# [9] = tested on: HCT116 cells; assay: Inhibition of KRas-mediated phosphorylation of ERK (Cisbio HTRF pERK), HCT116 cells; format: cell-based; conditions: Homo sapiens, HCT-116, single point at 100 nM, 3 hrs compound incubation
# KRas G12D, sequence (P01116 1-169 isoform P01116-2 G12D): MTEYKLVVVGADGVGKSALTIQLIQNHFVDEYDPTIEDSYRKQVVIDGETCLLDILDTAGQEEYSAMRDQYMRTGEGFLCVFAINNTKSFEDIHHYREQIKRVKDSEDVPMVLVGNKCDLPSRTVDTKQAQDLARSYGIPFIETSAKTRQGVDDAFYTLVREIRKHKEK
# KRas G12R, sequence (P01116 1-169 isoform P01116-2 G12R): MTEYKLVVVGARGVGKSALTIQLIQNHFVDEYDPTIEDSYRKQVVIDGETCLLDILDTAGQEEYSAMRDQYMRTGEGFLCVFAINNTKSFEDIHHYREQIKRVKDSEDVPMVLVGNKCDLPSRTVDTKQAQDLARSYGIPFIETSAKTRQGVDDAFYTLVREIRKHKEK
# KRas G12V, sequence (P01116 1-169 isoform P01116-2 G12V): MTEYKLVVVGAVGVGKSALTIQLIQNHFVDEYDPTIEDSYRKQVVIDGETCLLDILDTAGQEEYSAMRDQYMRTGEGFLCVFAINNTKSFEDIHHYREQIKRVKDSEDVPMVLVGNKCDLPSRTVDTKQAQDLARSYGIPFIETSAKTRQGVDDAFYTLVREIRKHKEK
IC50 [2] [nM],IC50 [3] [nM],IC50 [7] [nM],IC50 ([1]; Cisbio pERK HTRF) [nM],IC50 ([6]; Cisbio pERK HTRF) [nM],IC50 [1] [nM],"IC50 ([4]; A549, 3 h, 3 hr compound incubation) [nM]","IC50 ([5]; NCI-H358, 3 h, 3 hr compound incubation) [nM]",IC50 [6] [nM],Structure (SMILES),inhibition at 0.1 µM [1] [%],inhibition at 0.1 µM [4] [%],inhibition at 0.1 µM [5] [%],inhibition at 0.1 µM [6] [%],inhibition at 0.1 µM [8] [%],inhibition at 0.1 µM [9] [%]
109,295,261,8770,5370,–,–,–,–,"CCc1c(F)ccc2cc(O)cc(N3CCc4c(nc(OC[C@@]56CCCN5C[C@H](F)C6)nc4N4CCCn5nc(C(C(F)F)N(C)C)cc5C4)C3)c12 (stereo partly drawn) [Example 263, 4-(4-(2-(1-(dimethylamino)-2,2-difluoroethyl)-7,8-dihydro-4H-pyrazolo[1,5-a][1,4]diazepin-5(6H)-yl)-2-(((2R,7aS)-2-fluorotetrahydro-1H-pyrrolizin-7a(5H)-yl)methoxy)-5,8-dihydropyrido[3,4-d]pyrimidin-7(6H)-yl)-5-ethyl-6-fluoronaphthalen-2-ol]",–,–,–,–,-31,-11
195,264,230,> 10000,7000,–,–,–,–,"CCc1c(F)ccc2cc(O)cc(N3CCc4c(nc(OC[C@@]56CCCN5C[C@H](F)C6)nc4N4CCCn5nc(C(N(C)C)C(F)(F)F)cc5C4)C3)c12 (stereo partly drawn) [Example 280, 4-(4-(2-(1-(dimethylamino)-2,2,2-trifluoroethyl)-7,8-dihydro-4H-pyrazolo[1,5-a][1,4]diazepin-5(6H)-yl)-2-(((2R,7aS)-2-fluorotetrahydro-1H-pyrrolizin-7a(5H)-yl)methoxy)-5,8-dihydropyrido[3,4-d]pyrimidin-7(6H)-yl)-5-ethyl-6-fluoronaphthalen-2-ol]",–,-20,14,–,–,–
505,717,441,> 10000,6450,–,–,–,–,"CCc1c(F)ccc2cc(O)cc(N3CCc4c(nc(OC[C@@]56CCCN5C[C@H](F)C6)nc4N4CCCn5nc(N(C(C)=O)C(C)C)cc5C4)C3)c12 [Example 287, N-(5-(7-(8-ethyl-7-fluoro-3-hydroxynaphthalen-1-yl)-2-(((2R,7aS)-2-fluorohexahydro-1H-pyrrolizin-7a-yl)methoxy)-5,6,7,8-tetrahydropyrido[3,4-d]pyrimidin-4-yl)-5,6,7,8-tetrahydro-4H-pyrazolo[1,5-a][1,4]diazepin-2-yl)-N-i sopropyvlacetamide]",–,-15,-20,–,–,–
3,12,11,2900,1240,–,–,–,–,"CCc1c(F)ccc2cc(O)cc(N3CCc4c(nc(OC[C@@]56CCCN5C[C@H](F)C6)nc4N4CCCn5nc(CS(=O)(=O)NC)cc5C4)C3)c12 [Example 495, 1-(5-(7-(8-ethyl-7-fluoro-3-hydroxynaphthalen-1-yl)-2-(((2R,7aS)-2-fluorohexahydro-1H-pyrrolizin-7a-yl)methoxy)-5,6,7,8-tetrahydropyrido[3,4-d]pyrimidin-4-yl)-5,6,7,8-tetrahydro-4H-pyrazolo[1,5-a][1,4]diazepin-2-yl)-N-methylmethanesulfonamide]",3,26,1,-1,–,–

# Continued, molecule first:
Structure (SMILES),IC50 [2] [nM],IC50 [3] [nM],IC50 [7] [nM],IC50 ([1]; Cisbio pERK HTRF) [nM],IC50 ([6]; Cisbio pERK HTRF) [nM],IC50 [1] [nM],"IC50 ([4]; A549, 3 h, 3 hr compound incubation) [nM]","IC50 ([5]; NCI-H358, 3 h, 3 hr compound incubation) [nM]",IC50 [6] [nM],inhibition at 0.1 µM [1] [%],inhibition at 0.1 µM [4] [%],inhibition at 0.1 µM [5] [%],inhibition at 0.1 µM [6] [%],inhibition at 0.1 µM [8] [%],inhibition at 0.1 µM [9] [%]
"CCc1c(F)ccc2cc(O)cc(N3CCc4c(nc(OC[C@@]56CCCN5C[C@H](F)C6)nc4N4CCCc5c(cnn5C5CC5)C4)C3)c12 [Example 238, 4-(4-(1-cyclopropyl-7,8-dihydropyrazolo[4,3-c]azepin-5(1H,4H,6H)-yl)-2-(((2R,7aS)-2-fluorohexahydro-1H-pyrrolizin-7a-yl)methoxy)-5,6-dihydropyrido[3,4-d]pyrimidin-7(8H)-yl)-5-ethyl-6-fluoronaphthalen-2-ol]",1390,1140,4610,–,–,–,–,–,–,-2,-3,-17,9,–,–
"CCc1c(F)ccc2cc(O)cc(N3CCc4c(nc(OC[C@@]56CCCN5C[C@H](F)C6)nc4N4CCCc5c(cnn5C5CCC5)C4)C3)c12 [Example 240, 4-(4-(1-cyclobutyl-7,8-dihydropyrazolo[4,3-c]azepin-5(1H,4H,6H)-yl)-2-(((2R,7aS)-2-fluorohexahydro-1H-pyrrolizin-7a-yl)methoxy)-5,6-dihydropyrido[3,4-d]pyrimidin-7(8H)-yl)-5-ethyl-6-fluoronaphthalen-2-ol]",9840,2380,7480,–,–,–,–,–,–,-18,-1,-1,-5,–,–
"CCc1c(F)ccc2cc(O)cc(N3CCc4c(nc(OC[C@@]56CCCN5C[C@H](F)C6)nc4N4CCCc5nn(C6CCC6)cc5C4)C3)c12 [Example 241, 4-(4-(2-cyclobutyl-7,8-dihydropyrazolo[4,3-c]azepin-5(2H,4H,6H)-yl)-2-(((2R,7aS)-2-fluorohexahydro-1H-pyrrolizin-7a-yl)methoxy)-5,6-dihydropyrido[3,4-d]pyrimidin-7(8H)-yl)-5-ethyl-6-fluoronaphthalen-2-ol]",173,155,48,5020,7110,–,–,–,–,-4,5,-15,5,–,–
"CCc1c(F)ccc2cc(O)cc(N3CCc4c(nc(OC[C@@]56CCCN5C[C@H](F)C6)nc4N4CCCc5nn(C6COC6)cc5C4)C3)c12 [Example 242, 5-ethyl-6-fluoro-4-(2-(((2R,7aS)-2-fluorohexahydro-1H-pyrrolizin-7a-yl)methoxy)-4-(2-(oxetan-3-yl)-7,8-dihydropyrazolo[4,3-c]azepin-5(2H,4H,6H)-yl)-5,6-dihydropyrido[3,4-d]pyrimidin-7(8H)-yl)naphthalen-2-ol]",57,85,49,5630,3480,–,–,–,–,2,6,3,-9,–,–
"O=C1NCC2(CCCN(c3nc(OC[C@@]45CCCN4C[C@H](F)C5)nc4c3CCN(c3c5ccccc5cc5[nH]ncc35)C4)C2)N1 (stereo partly drawn) [Example 473, 7-(7-(1H-benzo[f]indazol-4-yl)-2-(((2R,7aS)-2-fluorohexahydro-1H-pyrrolizin-7a-yl)methoxy)-5,6,7,8-tetrahydropyrido[3,4-d]pyrimidin-4-yl)-1,3,7-triazaspiro[4.5]decan-2-one]",–,–,–,4100,5120,–,–,–,–,–,12,12,–,–,–
"CCCCCCCCN(C)C(=O)c1cc2n(n1)CCCN(c1nc(OC[C@@]34CCCN3C[C@H](F)C4)nc3c1CCN(c1cc(O)cc4ccc(F)c(CC)c14)C3)C2 [Example 498, 5-(7-(8-ethyl-7-fluoro-3-hydroxynaphthalen-1-yl)-2-(((2R,7aS)-2-fluorohexahydro-1H-pyrrolizin-7a-yl)methoxy)-5,6,7,8-tetrahydropyrido[3,4-d]pyrimidin-4-yl)-N-methyl-N-octyl-5,6,7,8-tetrahydro-4H-pyrazolo[1,5-a][1,4]diazepine-2-carboxamide]",10,9,22,410,258,–,–,–,–,12,25,5,-13,–,–
"CCc1c(F)ccc2cc(O)cc(N3CCc4c(nc(OC[C@@]56CCCN5C[C@H](F)C6)nc4N4CCCn5nc(C(=O)N6CC7(CNC7)C6)cc5C4)C3)c12 [Example 505, (5-(7-(8-ethyl-7-fluoro-3-hydroxynaphthalen-1-yl)-2-(((2R,7aS)-2-fluorohexahydro-1H-pyrrolizin-7a-yl)methoxy)-5,6,7,8-tetrahydropyrido[3,4-d]pyrimidin-4-yl)-5,6,7,8-tetrahydro-4H-pyrazolo[1,5-a][1,4]diazepin-2-yl)(2,6-diazaspiro[3.3]heptan-2-yl)methanone]",–,–,–,1080,128,–,–,–,–,26,–,–,30,0,7
"CCc1c(F)ccc2cc(O)cc(N3CCc4c(nc(OC[C@@]56CCCN5C/C(=C\F)C6)nc4N4CCC[C@]5(C4)NC(=O)NC5=O)C3)c12 [Example 715, (R)-7-(7-(8-ethyl-7-fluoro-3-hydroxynaphthalen-1-yl)-2-(((S,Z)-2-(fluoromethylene)tetrahydro-1H-pyrrolizin-7a(5H)-yl)methoxy)-5,6,7,8-tetrahydropyrido[3,4-d]pyrimidin-4-yl)-1,3,7-triazaspiro[4.5]decane-2,4-dione]",–,–,–,–,–,4,1,1,2,–,–,–,–,–,–
